Experimental data published in patent US12533345B2 (AARHUS UNIVERSITET, priority 2015, dated 2026).
Read-outs that look alike come from different tables or passages of the source.

Assays:
rat EDL muscles = assay: LDH release from stimulated 9AC-treated (myotonic) rat EDL muscles; type: cell-based; settings: stimulation for 60 min, LDH followed 3 hrs after contraction
Experimental: In all cases a sample was taken before stimulation (Pre), the muscles were then stimulated to contraction for 2 s at 30 Hz by 0.2 ms pulses every 3 minutes for 60 min (20 stimulations) or left resting. Open symbols are from muscles incubated with 9AC±LTG or RUF. Solid triangles are from muscles incubated with 9AC without stimulation. Immediately after cessation of stimulation, a new sample was taken from solution incubating the muscles. For the next 180 minutes a sample was taken from the incubating solution every 30 minutes, as designated by the time after stimulation. The period from cessation of stimulation to 180 min after stimulation is termed recovery.
EDL muscles from rats were isolated and placed in small chambers with oxygenated as previously described in detail (Gissel H1, Clausen T. Excitation-induced Ca(2+) influx in rat soleus and EDL muscle: mechanisms and effects on cellular integrity. Am J Physiol Regul Integr Comp Physiol. 2000 279(3): R917-24).
To explore for an effect of myotonia on muscle fibre integrity and the effect of the drugs hereupon, the release of the intracellular protein from the muscle, lactate dehydrogenase (LDH), to the incubation solution was determined in contracting EDL muscles.

[1] = tested on: non-myotonic rat soleus muscles; assay: Contractile force in non-myotonic isolated rat soleus muscles; type: cell-based; settings: three hrs incubation, 5 and 60 Hz stimulation, similar to time-matched controls
Experimental: To first test for effects of the three drugs (RUF, LCM and LTG) on force in non-myotonic rat soleus muscles, muscles were exposed to 2 s stimulations at both 5 Hz and 60 Hz every 10 mins during three hrs of drug incubation. The drug concentrations were the highest free concentrations that are tolerated clinically: For both 5 and 60 Hz stimulation, incubation with 5 μM LCM reduced force by ˜6-8% in two muscles. With 25 μM LTG force was reduced by ˜6% in three muscles, and with 100 μM RUF force was reduced by 4% in three muscles. In all cases, these reductions in force during the three hours were similar to reductions observed in time-matched control muscles.

[2] = tested on: CIC-1 inhibited rat soleus muscles; assay: Myotonia (tail AUC of force response) in 9AC-treated isolated rat soleus muscle; settings: for EC50: Rattus norvegicus; for Reduction of myotonia within clinically observed concentration ranges: isolated muscle, species not stated at this place (study on rat and human); for Slope of fit / Ability to abolish myotonia: rat soleus; for Slope of fit: 3-parameter sigmoidal fit of AUC vs concentration; for Ability to abolish myotonia: 9AC, increasing concentrations
[3] = tested on: isolated human abdominal rectus muscle; assay: Myotonia (tail AUC) in 9AC-treated bundles of isolated human abdominal rectus muscle; type: cell-based; settings: for EC50: Homo sapiens, read-out: EC50 (concentration required to reduce AUC to 50% of maximal value); for Slope of fit: human muscle bundles, 3-parameter sigmoidal fit, mean ± SEM; for Ability to abolish myotonia: isolated human muscles, 9AC, increasing concentrations
Experimental: As in rat muscles myotonia was induced with 9-AC and quantified from the AUC as determined from the cessation of stimulation to force returned to baseline. […] C and D show similar data for RUF (n=4) and LTG (n=6), respectively.
The use of human muscles was approved by the Danish Ethics Committee, Region Midtjylland, Comité I (reference number Jan. 10, 1972-20-13) and was performed in accordance with the Helsinki Declaration. Informed consent was obtained from all subjects before inclusion. Muscles were obtained from 4 male subjects admitted in relation to planned aortic aneurysm surgery at Skejby hospital. […] After isolation the tissue was transported to the laboratory at the University (<30 min) in a HEPES based solution (pH 7.4) at ˜5° C. Upon arrival to the laboratory, the tissue was incubated in often-replaced fresh Krebs-Ringer bicarbonate solution equilibrated with 5% CO2 in oxygen at 30° C. for 10 to 20 min, before further dissection into smaller bundles of approx. 4 cm length weighing 515±61 mg. For contraction experiments, bundles were tied at both ends with polyester string, to enable mounting of the preparations in the setups for measurement of contractile force.
The experiments in FIG. 1 were repeated for small muscle bundles of human abdominal muscle. 9AC was used to induce myotonia and, subsequently, LCM, RUF or LTG were added at increasing concentrations. In all cases, myotonia was reduced with increased concentration of drug. […] Similar traces were obtained with LCM-and LTG-treated bundles of human muscle. FIG. 2B-D show data and sigmoidal fits from individual bundles with additions of LCM (n=5), RUF (n=5) and LTG (n=6), respectively.

[4] = read-out: EC50 (concentration required to reduce AUC to 50% of maximal value), rat soleus, 100 μM 9AC, 15 Hz 2 s stimulation, 3-parameter sigmoidal fit, mean ± SEM, Table 1 prints no unit, b139 gives concentrations in μM
[5] = 10 min, read-out: EC50 (reduction of AUC), rat soleus, 100 μM 9AC, 15 Hz 2 s every 10 min, two muscles per compound

EC50 [2, 4] | EC50 [3] | Structure (SMILES) | Effect on myotonia-induced LDH release (muscle damage) (rat EDL muscles) | Reduction of myotonia within clinically observed concentration ranges [2] | Slope of fit ([2]; mean ± SEM) | Ability to abolish myotonia [2] | Slope of fit [3] | Ability to abolish myotonia [3] | EC50 [2, 5] | also measured
1.52 ± 0.13 µM | 5.54 ± 0.88 µM | Nc1nnc(-c2cccc(Cl)c2Cl)c(N)n1 [Lamotrigine, 6-(2,3-dichlorophenyl)-1,2,4-triazine-3,5-diamine] | Very similar effects | 92±2% | −0.39 ± 0.042 | completely abolish myotonia | −0.30 ± 0.068 | completely abolish myotonia |  | Reduction of force ([1]; 25 μM LTG): ~6%; AUC as % of the full myotonic state ([2]; 0.5 μM LTG (FIG. 3 A3)): 90%; Reduction of AUC (myotonia) ([2]; 2 μM LTG (FIG. 1 C3)): ~46%; Reduction of AUC (myotonia) ([2]; 16 μM LTG (FIG. 1 C4)): ~98%
 |  | NC(=O)c1nnn(Cc2ccccc2)c1N [Compound 1, 5-amino-1-benzyl-1H-1,2,3-triazole-4-carboxamide] |  |  |  | completely abolish myotonia |  |  | 24.7 µM | 
 |  | Cc1c(C(N)=O)nnn1Cc1ccccc1 [Compound 2, 1-benzyl-5-methyl-1H-1,2,3-triazole-4-carboxamide] |  |  |  | completely abolish myotonia |  |  | 19.1 µM | 
18.1 ± 1.84 µM | 22.5 ± 1.73 µM | NC(=O)c1cn(Cc2c(F)cccc2F)nn1 [Rufinamide, 1-(2,6-Difluorobenzyl)-1H-1,2,3-triazole-4-carboxamide] | completely blocked | 92±2% | −0.29 ± 0.02 | completely abolish myotonia | −0.33 ± 0.035 | completely abolish myotonia |  | Reduction of force ([1]; 100 μM RUF): 4%; Reduction of AUC (myotonia) ([2]; 20 μM RUF, 9AC treated muscle (FIG. 1 B3)): more than 50%; Reduction of AUC (myotonia) ([2]; 100 μM RUF (FIG. 1 B4)): ~98%; EC50 ([2]; read-out: RUF concentration for AUC to be reduced by 50%, in presence of 0.5 μM LTG (n=6)): 7 µM; EC50 ([2]; read-out: RUF concentration for AUC to be reduced by 50%, pre-incubation with 1 μM LTG (n=4)): 3.1 µM; RUF concentration less than expected if RUF and LTG acted purely additively ([2]; isobole plot, 0.5 μM LTG): 5 µM; RUF concentration less than predicted by the assumption of additivity ([2]; isobole plot, 1 μM LTG): 3 µM; RUF concentration for half effect as % of concentration expected for additive action ([2]; with 0.5 μM or 1 μM LTG, both cases): around 50%; Effect on myotonia ([3]; 80 μM RUF, single human muscle bundle, 100 μM 9AC (FIG. 2A)): almost full abolishment of myotonia
